Source: PubChem BioAssay (NCI)
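Exposure lasted 48 hours, with cells grown in 96-well plates and compounds tested at five concentrations. GI50: concentration for 50% inhibition of growth. TGI is the concentration that stops growth completely.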

What was measured:
Experiment in all cases: DTP human tumour cell line panel, 48 h
MALME-3M melanoma = tested on: MALME-3M melanoma
HOP-62 NSCLC = tested on: HOP-62 NSCLC
SK-MEL-5 melanoma = tested on: SK-MEL-5 melanoma
HCT-15 colon = tested on: HCT-15 colon
PC-3 prostate = tested on: PC-3 prostate
U251 CNS = tested on: U251 CNS
SK-MEL-28 melanoma = tested on: SK-MEL-28 melanoma
OVCAR-5 ovarian = tested on: OVCAR-5 ovarian
T-47D breast = tested on: T-47D breast
NCI-H226 lung = tested on: NCI-H226 lung
SW-620 colon = tested on: SW-620 colon
RPMI-8226 leukemia = tested on: RPMI-8226 leukemia
NCI-H522 lung = tested on: NCI-H522 lung
K-562 leukemia = tested on: K-562 leukemia
OVCAR-8 ovarian = tested on: OVCAR-8 ovarian
HS 578T breast = tested on: HS 578T breast
OVCAR-4 ovarian = tested on: OVCAR-4 ovarian
SF-539 CNS = tested on: SF-539 CNS
SK-MEL-2 melanoma = tested on: SK-MEL-2 melanoma
SNB-19 CNS = tested on: SNB-19 CNS
SN12C renal = tested on: SN12C renal
SK-OV-3 ovarian = tested on: SK-OV-3 ovarian
EKVX NSCLC = tested on: EKVX NSCLC
DU-145 prostate = tested on: DU-145 prostate
SF-268 CNS = tested on: SF-268 CNS
UACC-62 melanoma = tested on: UACC-62 melanoma
NCI-H460 lung = tested on: NCI-H460 lung
UACC-257 melanoma = tested on: UACC-257 melanoma
LOX IMVI melanoma = tested on: LOX IMVI melanoma
ACHN renal = tested on: ACHN renal
CAKI-1 renal = tested on: CAKI-1 renal
HT29 colon = tested on: HT29 colon
BT-549 breast = tested on: BT-549 breast
HOP-92 NSCLC = tested on: HOP-92 NSCLC
MDA-MB-435 = tested on: MDA-MB-435
NCI-H23 lung = tested on: NCI-H23 lung
SNB-75 CNS = tested on: SNB-75 CNS
RXF 393 renal = tested on: RXF 393 renal
A549 NSCLC = tested on: A549 NSCLC
MDA-MB-231 breast = tested on: MDA-MB-231 breast
MCF7 breast = tested on: MCF7 breast
UO-31 renal = tested on: UO-31 renal
SF-295 CNS = tested on: SF-295 CNS
TK-10 renal = tested on: TK-10 renal
NCI/ADR-RES ovarian = tested on: NCI/ADR-RES ovarian
HCT-116 colon = tested on: HCT-116 colon
HCC-2998 colon = tested on: HCC-2998 colon
IGROV1 ovarian = tested on: IGROV1 ovarian
MOLT-4 leukemia = tested on: MOLT-4 leukemia
KM12 colon = tested on: KM12 colon
HL-60(TB) leukemia = tested on: HL-60(TB) leukemia
OVCAR-3 ovarian = tested on: OVCAR-3 ovarian
COLO 205 colon = tested on: COLO 205 colon
M14 melanoma = tested on: M14 melanoma
SR leukemia = tested on: SR leukemia
786-0 renal = tested on: 786-0 renal

## COc1cccc(-c2nn(-c3ccccc3)cc2-c2ccnc(NCCNC(=O)Nc3ccc(Cl)c(Cl)c3)c2)c1
MALME-3M melanoma
  GI50: 1.89 µM
  TGI: 4.66 µM
HOP-62 NSCLC
  GI50: 3.39 µM
  TGI: 12.7 µM
SK-MEL-5 melanoma
  GI50: 1.95 µM
  TGI: 3.71 µM
HCT-15 colon
  GI50: 3 µM
  TGI: 10.7 µM
PC-3 prostate
  GI50: 2.5 µM
  TGI: 8.36 µM
U251 CNS
  GI50: 2.65 µM
  TGI: 7.73 µM
SK-MEL-28 melanoma
  GI50: 2.03 µM
  TGI: 4.59 µM
OVCAR-5 ovarian
  GI50: 2.25 µM
  TGI: 10.1 µM
T-47D breast
  GI50: 3.85 µM
  TGI: 24.7 µM
NCI-H226 lung
  GI50: 3.63 µM
  TGI: 18.7 µM
SW-620 colon
  GI50: 2.7 µM
  TGI: 11.1 µM
RPMI-8226 leukemia
  GI50: 2.6 µM
  TGI: 7.52 µM
NCI-H522 lung
  GI50: 2.18 µM
  TGI: 5.96 µM
K-562 leukemia
  GI50: 3.09 µM
  TGI: 11.1 µM
OVCAR-8 ovarian
  GI50: 2.98 µM
  TGI: 11.2 µM
HS 578T breast
  GI50: 1.96 µM
  TGI: 5.19 µM
OVCAR-4 ovarian
  GI50: 3.25 µM
  TGI: 16.2 µM
SF-539 CNS
  GI50: 1.93 µM
  TGI: 4.17 µM
SK-MEL-2 melanoma
  GI50: 2.09 µM
  TGI: 5.17 µM
SNB-19 CNS
  GI50: 2.63 µM
  TGI: 9.8 µM
SN12C renal
  GI50: 2.39 µM
  TGI: 5.96 µM
SK-OV-3 ovarian
  GI50: 4.06 µM
  TGI: 14.4 µM
EKVX NSCLC
  GI50: 2.48 µM
  TGI: 16.7 µM
DU-145 prostate
  GI50: 3.52 µM
  TGI: 12.7 µM
SF-268 CNS
  GI50: 2.43 µM
  TGI: 10.3 µM
UACC-62 melanoma
  GI50: 1.84 µM
  TGI: 4.51 µM
NCI-H460 lung
  GI50: 1.88 µM
  TGI: 4.33 µM
UACC-257 melanoma
  GI50: 3.63 µM
  TGI: 20.3 µM
LOX IMVI melanoma
  GI50: 1.66 µM
  TGI: 3.21 µM
ACHN renal
  GI50: 2.79 µM
  TGI: 10.2 µM
CAKI-1 renal
  GI50: 2.79 µM
  TGI: 11.1 µM
HT29 colon
  GI50: 1.91 µM
  TGI: 5.39 µM
BT-549 breast
  GI50: 2.94 µM
  TGI: 10.4 µM
HOP-92 NSCLC
  GI50: 1.37 µM
  TGI: 5.48 µM
MDA-MB-435
  GI50: 1.86 µM
  TGI: 4.26 µM
NCI-H23 lung
  GI50: 2.46 µM
  TGI: 11.6 µM
SNB-75 CNS
  GI50: 1.43 µM
  TGI: 5.96 µM
RXF 393 renal
  GI50: 1.2 µM
  TGI: 3.15 µM
A549 NSCLC
  GI50: 3.38 µM
  TGI: 12.5 µM
MDA-MB-231 breast
  GI50: 2.04 µM
  TGI: 5.04 µM
MCF7 breast
  GI50: 2.46 µM
  TGI: 11.7 µM
UO-31 renal
  GI50: 1.44 µM
  TGI: 5.03 µM
SF-295 CNS
  GI50: 2.41 µM
  TGI: 7.28 µM
TK-10 renal
  GI50: 4.78 µM
  TGI: 18.9 µM
NCI/ADR-RES ovarian
  GI50: 2.08 µM
  TGI: 5.64 µM
HCT-116 colon
  GI50: 2.17 µM
  TGI: 5.33 µM
HCC-2998 colon
  GI50: 1.88 µM
  TGI: 3.78 µM
IGROV1 ovarian
  GI50: 3.61 µM
  TGI: 15.6 µM
MOLT-4 leukemia
  GI50: 2.31 µM
  TGI: 7.11 µM
KM12 colon
  GI50: 2.27 µM
  TGI: 5.79 µM
HL-60(TB) leukemia
  GI50: 2.43 µM
  TGI: 6.85 µM
OVCAR-3 ovarian
  GI50: 2.59 µM
  TGI: 8.2 µM
COLO 205 colon
  GI50: 2.07 µM
  TGI: 4.44 µM
M14 melanoma
  GI50: 1.67 µM
  TGI: 4.05 µM
SR leukemia
  GI50: 1.51 µM
  TGI: 6.02 µM
786-0 renal
  GI50: 1.55 µM
  TGI: 3.28 µM
